Data taken from ChEMBL document CHEMBL3885881, “DrugMatrix”.

Species: Rattus norvegicus
Assay: DrugMatrix - Regimen: Daily Repeat
Type: toxicity, organism-based, Sprague-Dawley
Design: regimen Daily Repeat, gender Male, age 6-8 weeks
Details: in vivo, po, route oral GAVAGE, vehicle .5 % CMC; for BASOPHIL / EOSINOPHIL / ERYTHROCYTE COUNT / HEMATOCRIT / HEMOGLOBIN / LEUKOCYTE COUNT / LYMPHOCYTE / MEAN CORPUSCULAR HEMOGLOBIN / MEAN CORPUSCULAR HEMOGLOBIN CONCENTRATION / MEAN CORPUSCULAR VOLUME / MONOCYTE / NEUTROPHIL / PLATELET COUNT: tissue Blood; for ALANINE AMINOTRANSFERASE / ALBUMIN / ALKALINE PHOSPHATASE / ASPARTATE AMINOTRANSFERASE / BLOOD UREA NITROGEN / CARBON DIOXIDE / CHLORIDE / CHOLESTEROL / CREATINE PHOSPHOKINASE / CREATININE / GLUCOSE / LACTATE DEHYDROGENASE / LIPASE / PHOSPHORUS / POTASSIUM / SODIUM / TOTAL BILIRUBIN / TOTAL PROTEIN / URIC ACID: tissue Plasma
[1] = 0 mg/kg, 72 h, dose level Control, time 3 day
[2] = 0 mg/kg, 120 h, dose level Control, time 5 day
[3] = 1200 mg/kg, 72 h, dose level High, time 3 day
[4] = 1200 mg/kg, 120 h, dose level High, time 5 day

CCCCC1=NC2(CCCC2)C(=O)N1Cc1ccc(-c2ccccc2-c2nnn[nH]2)cc1 [IRBESARTAN]
BASOPHIL [1]: 0.17% | EOSINOPHIL [1]: 0.83% | ERYTHROCYTE COUNT [1]: 7.2 x10E6/uL | HEMATOCRIT [1]: 43.13% | HEMOGLOBIN [1]: 14.63 G/DL | LEUKOCYTE COUNT [1]: 9.05 x10E3/uL | LYMPHOCYTE [1]: 75.17% | MEAN CORPUSCULAR HEMOGLOBIN [1]: 20.35 pg | MEAN CORPUSCULAR HEMOGLOBIN CONCENTRATION [1]: 33.95 G/DL | MEAN CORPUSCULAR VOLUME [1]: 59.93 fL | MONOCYTE [1]: 2.83% | NEUTROPHIL [1]: 21.17% | PLATELET COUNT [1]: 1093.17 x10E3/uL | ALANINE AMINOTRANSFERASE [1]: 49.17 u/L | ALBUMIN [1]: 4.33 G/DL | ALKALINE PHOSPHATASE [1]: 366.5 u/L | ASPARTATE AMINOTRANSFERASE [1]: 86.33 u/L | BLOOD UREA NITROGEN [1]: 17 mg/dL | CARBON DIOXIDE [1]: 24.17 mmol/L | CHLORIDE [1]: 102.83 MEQ/L | CHOLESTEROL [1]: 78.33 mg/dL | CREATINE PHOSPHOKINASE [1]: 320.83 u/L | CREATININE [1]: 0.3 mg/dL | GLUCOSE [1]: 140.83 mg/dL | LACTATE DEHYDROGENASE [1]: 210 u/L | LIPASE [1]: 9.33 u/L | PHOSPHORUS [1]: 9.12 mg/dL | POTASSIUM [1]: 5.65 MEQ/L | SODIUM [1]: 144.17 MEQ/L | TOTAL BILIRUBIN [1]: 0.1 mg/dL | TOTAL PROTEIN [1]: 6.3 G/DL | URIC ACID [1]: 1.03 mg/dL | BASOPHIL [2]: 0.17% | EOSINOPHIL [2]: 1% | ERYTHROCYTE COUNT [2]: 7.02 x10E6/uL | HEMATOCRIT [2]: 43.12% | HEMOGLOBIN [2]: 14.18 G/DL | LEUKOCYTE COUNT [2]: 9.63 x10E3/uL | LYMPHOCYTE [2]: 72% | MEAN CORPUSCULAR HEMOGLOBIN [2]: 20.25 pg | MEAN CORPUSCULAR HEMOGLOBIN CONCENTRATION [2]: 32.95 G/DL | MEAN CORPUSCULAR VOLUME [2]: 61.43 fL | MONOCYTE [2]: 2.67% | NEUTROPHIL [2]: 24.5% | PLATELET COUNT [2]: 1028.5 x10E3/uL | ALANINE AMINOTRANSFERASE [2]: 42.5 u/L | ALBUMIN [2]: 4.2 G/DL | ALKALINE PHOSPHATASE [2]: 300.33 u/L | ASPARTATE AMINOTRANSFERASE [2]: 87.67 u/L | BLOOD UREA NITROGEN [2]: 17 mg/dL | CARBON DIOXIDE [2]: 24.33 mmol/L | CHLORIDE [2]: 99 MEQ/L | CHOLESTEROL [2]: 70.67 mg/dL | CREATINE PHOSPHOKINASE [2]: 891.33 u/L | CREATININE [2]: 0.3 mg/dL | GLUCOSE [2]: 139.67 mg/dL | LACTATE DEHYDROGENASE [2]: 289.83 u/L | LIPASE [2]: 8.83 u/L | PHOSPHORUS [2]: 9.5 mg/dL | POTASSIUM [2]: 5.55 MEQ/L | SODIUM [2]: 139 MEQ/L | TOTAL BILIRUBIN [2]: 0.0833 mg/dL | TOTAL PROTEIN [2]: 6.1 G/DL | URIC ACID [2]: 0.98 mg/dL | BASOPHIL [3]: 0.33% | EOSINOPHIL [3]: 1% | ERYTHROCYTE COUNT [3]: 7.31 x10E6/uL | HEMATOCRIT [3]: 43.7% | HEMOGLOBIN [3]: 14.73 G/DL | LEUKOCYTE COUNT [3]: 11.5 x10E3/uL | LYMPHOCYTE [3]: 81.67% | MEAN CORPUSCULAR HEMOGLOBIN [3]: 20.17 pg | MEAN CORPUSCULAR HEMOGLOBIN CONCENTRATION [3]: 33.73 G/DL | MEAN CORPUSCULAR VOLUME [3]: 59.8 fL | MONOCYTE [3]: 2% | NEUTROPHIL [3]: 14.67% | PLATELET COUNT [3]: 1173.33 x10E3/uL | ALANINE AMINOTRANSFERASE [3]: 46 u/L | ALBUMIN [3]: 4.67 G/DL | ALKALINE PHOSPHATASE [3]: 305.33 u/L | ASPARTATE AMINOTRANSFERASE [3]: 75 u/L | BLOOD UREA NITROGEN [3]: 17.67 mg/dL | CARBON DIOXIDE [3]: 28.33 mmol/L | CHLORIDE [3]: 103.33 MEQ/L | CHOLESTEROL [3]: 73 mg/dL | CREATINE PHOSPHOKINASE [3]: 219 u/L | CREATININE [3]: 0.3 mg/dL | GLUCOSE [3]: 133.33 mg/dL | LACTATE DEHYDROGENASE [3]: 300.67 u/L | LIPASE [3]: 9.33 u/L | PHOSPHORUS [3]: 9.03 mg/dL | POTASSIUM [3]: 5.67 MEQ/L | SODIUM [3]: 146 MEQ/L | TOTAL BILIRUBIN [3]: 0.1 mg/dL | TOTAL PROTEIN [3]: 6.67 G/DL | URIC ACID [3]: 1.23 mg/dL | BASOPHIL [4]: 0.33% | EOSINOPHIL [4]: 1% | ERYTHROCYTE COUNT [4]: 7.01 x10E6/uL | HEMATOCRIT [4]: 42.37% | HEMOGLOBIN [4]: 14.23 G/DL | LEUKOCYTE COUNT [4]: 11.4 x10E3/uL | LYMPHOCYTE [4]: 79.67% | MEAN CORPUSCULAR HEMOGLOBIN [4]: 20.33 pg | MEAN CORPUSCULAR HEMOGLOBIN CONCENTRATION [4]: 33.57 G/DL | MEAN CORPUSCULAR VOLUME [4]: 60.47 fL | MONOCYTE [4]: 2% | NEUTROPHIL [4]: 17.33% | PLATELET COUNT [4]: 1226.33 x10E3/uL | ALANINE AMINOTRANSFERASE [4]: 44.67 u/L | ALBUMIN [4]: 4.23 G/DL | ALKALINE PHOSPHATASE [4]: 299.5 u/L | ASPARTATE AMINOTRANSFERASE [4]: 74.33 u/L | BLOOD UREA NITROGEN [4]: 18.67 mg/dL | CARBON DIOXIDE [4]: 20 mmol/L | CHLORIDE [4]: 98.33 MEQ/L | CHOLESTEROL [4]: 74 mg/dL | CREATINE PHOSPHOKINASE [4]: 216.33 u/L | CREATININE [4]: 0.27 mg/dL | GLUCOSE [4]: 136 mg/dL | LACTATE DEHYDROGENASE [4]: 197.33 u/L | LIPASE [4]: 8.67 u/L | PHOSPHORUS [4]: 7.83 mg/dL | POTASSIUM [4]: 5.6 MEQ/L | SODIUM [4]: 138 MEQ/L | TOTAL BILIRUBIN [4]: 0.1 mg/dL | TOTAL PROTEIN [4]: 6.17 G/DL | URIC ACID [4]: 0.93 mg/dL
